From patent US12466820B2, “Amino quinazoline derivatives as P2X3 inhibitors” (CHIESI FARMACEUTICI S.p.A., priority 2019, dated 2025) come the findings set out here.

One may read the IC50 as the concentration at which inhibition is half-maximal. A lower IC50 goes with higher potency.

Where a name gives a salt, the structure may show the parent alone. Bounds are passed on as bounds.

The first experiment concerns the target T1, h P2X3 (Homo sapiens, UniProt P56373).
T1 sequence (P56373 1-397): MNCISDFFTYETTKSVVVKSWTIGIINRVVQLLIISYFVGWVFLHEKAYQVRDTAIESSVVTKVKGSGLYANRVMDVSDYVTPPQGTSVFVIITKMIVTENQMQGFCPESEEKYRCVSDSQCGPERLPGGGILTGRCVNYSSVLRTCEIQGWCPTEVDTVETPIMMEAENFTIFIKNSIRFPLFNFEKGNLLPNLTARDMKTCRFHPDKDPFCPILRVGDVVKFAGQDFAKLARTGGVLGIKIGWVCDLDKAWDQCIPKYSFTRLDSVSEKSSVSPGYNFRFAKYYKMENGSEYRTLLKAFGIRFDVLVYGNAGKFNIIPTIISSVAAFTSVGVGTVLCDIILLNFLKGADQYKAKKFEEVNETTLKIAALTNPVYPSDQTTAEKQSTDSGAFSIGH
In words: In vitro electrophysiology assay for P2X3 (automated whole-cell patch clamp, Sophion Qube). The class given is cell-based. As to conditions: Table 6; range of activity; inhibition of P2X3 current, agonist α,β-MeATP (800 nM). The procedure:
Pharmacological Activity of the Compounds of the Invention In Vitro Electrophysiology Assay for P2X3
Cells expressing P2X3 receptors were grown according to standard practice and maintained at 37° C. in a 5% humidified CO2 atmosphere. The cells were seeded into T175 flask 2 days prior to the day of the assay and dissociated from the flasks using TrypLE when grown to confluence of 80-90%. The dissociated cells were resuspended in serum free media at a cell density of 3×10^6 cells/ml and loaded onto the Sophion Qube automated patch-clamp system. The extracellular assay buffer contained 145 mM NaCl, 4 mM KCl, 2 mM CaCl2), 1 mM MgCl2, 10 mM HEPES, and 10 mM glucose at pH 7.4. The intracellular assay solution contained 140 mM CsF, 10 mM NaCl, 10 mM EGTA, 10 mM HEPES at pH 7.2. Agonist stock solutions were prepared in H2O and diluted in bath solution prior to use. All antagonists were prepared as 10 mM stock solutions in DMSO and diluted in bath solution prior to use. All experiments were performed under the whole-cell patch clamp configuration at room temperature with 384 individual cells being voltage clamped at −60 mV simultaneously on the Sophion Qube instrument. Two baseline responses were established with the application of α,β-MeATP (800 nM), with the subsequent agonist applications being washed out using extracellular assay buffer containing 0.5 U/ml apyrase. Following the second agonist application, antagonist was incubated in the absence of α,β-MeATP for 10 minutes. After antagonist preincubation, 800 nM α,β-MeATP and antagonist were co-administered to determine the inhibitory effect of the antagonist. One concentration of an antagonist was assessed against a single cell, with different concentrations of the antagonist applied to other cells on the 384 recording substrate. The control P2X3 current amplitude was taken from the peak current amplitude from the second agonist response prior to preincubation with antagonist. The peak P2X3 current amplitude in the presence of antagonist was used to calculate the inhibitory effect at each concentration of the antagonist according to the following equation: […]
Concentration-response curves were constructed from ten different concentrations with each concentration of antagonist tested on at least two individual cells. The concentration of the antagonist to inhibit P2X3 current by 50% (IC50) was determined by fitting the data with the following equation: […]
Where ‘a’ is minimum response, ‘b’ is maximum response, ‘c’ is IC50 and ‘d’ is Hill slope.
The results for individual compounds are provided below in Table 6 and are expressed as range of activity.
The activity of the comparative examples A and B have been tested in the in vitro Electrophysiology Assay for P2X3 as described above.
For orientation: In patch-clamp work, channel activity is measured electrically.
`COc1cc(-c2ccc(C)cn2)cc2c(NC(C)c3nnc(C)s3)ncnc12` (single isomer, unassigned) [Example 126, 8-methoxy-6-(5-methyl-2-pyridyl)-N-[1-(5-methyl-1,3,4-thiadiazol-2-yl)ethyl]quinazolin-4-amine] showed an IC50 of 3160 to 31600 nM.
Molecule `COc1cc(-c2ccc(F)cn2)cc2c(NC(C)c3nc(C)no3)ncnc12` (single isomer, unassigned) [Example 175, 6-(5-fluoropyridin-2-yl)-8-methoxy-N-(1-(3-methyl-1,2,4-oxadiazol-5-yl)ethyl)quinazolin-4-amine] yielded an IC50 of 316 to 3160 nM.
Molecule `COc1cc(-c2ncc(C)s2)cc2c(NCc3ccc(F)cn3)ncnc12` [Example 119, N-((5-fluoropyridin-2-yl)methyl)-8-methoxy-6-(5-methylthiazol-2-yl)quinazolin-4-amine] registered an IC50 of less than 316 nM.
With `COc1cc(-c2ncc(C)cn2)cc2c(NC(C)c3ccc(C(F)(F)F)nn3)ncnc12` (single isomer, unassigned) [Example 120, 8-methoxy-6-(5-methylpyrimidin-2-yl)-N-[1-[6-(trifluoromethyl)pyridazin-3-yl]ethyl]quinazolin-4-amine], the IC50 is less than 316 nM.
Molecule `CN1CCC(CNc2ncnc3c(OCC(=O)O)cc(-c4ccc(F)cc4)cc23)CC1` [Example 57, 2-((6-(4-fluorophenyl)-4-(((1-methylpiperidin-4-yl)methyl)amino)quinazolin-8-yl)oxy)acetic Acid Hydrochloride] registered an IC50 of 316 to 3160 nM.
In the case of `COc1cc(-c2ccc(F)cn2)cc2c(NC(C)c3ccc(C(F)(F)F)nn3)ncnc12` (single isomer, unassigned) [Example 170, 6-(5-fluoro-2-pyridyl)-8-methoxy-N-[1-[6-(trifluoromethyl)pyridazin-3-yl]ethyl]quinazolin-4-amine], the IC50 lay within 316 to 3160 nM.
As for `COc1cc(-c2ccc(F)cn2)cc2c(NCc3cc(C)on3)ncnc12` [Example 138, 6-(5-fluoro-2-pyridyl)-8-methoxy-N-[(5-methylisoxazol-3-yl)methyl]quinazolin-4-amine], the IC50 lay within 316 to 3160 nM.
Consider `COc1cc(-c2ncc(C)s2)cc2c(NC(C)c3nnc(C)s3)ncnc12` (centres unmarked) [Example 106, 8-methoxy-N-(1-(5-methyl-1,3,4-thiadiazol-2-yl)ethyl)-6-(5-methylthiazol-2-yl)quinazolin-4-amine], for which the IC50 was less than 316 nM.
`C[C@@H](Nc1ncnc2c(OC3CC4CC3CN4)cc(-c3ccc(F)cc3)cc12)c1cnc(C(F)(F)F)nc1` (stereo partly drawn) [Example 41, 8-((2-azabicyclo[2.2.1]heptan-5-yl)oxy)-6-(4-fluorophenyl)-N-((R)-1-(2-(trifluoromethyl)pyrimidin-5-yl)ethyl)quinazolin-4-amine]: the IC50 is less than 316 nM.
Still for that read-out and setting: the figure for `Cc1nnc([C@@H](C)Nc2ncnc3c(S(=O)(=O)N(C)C)cc(-c4ccc(F)cc4)cc23)s1` (stereo in doubt) [Example 12, 6-(4-fluorophenyl)-N,N-dimethyl-4-((1-(5-methyl-1,3,4-thiadiazol-2-yl)ethyl)amino)quinazoline-8-sulfonamide] is less than 316 nM; for `Cc1ccc(CNc2ncnc3c(OC4COC4)cc(-c4ccc(F)cc4)cc23)nn1` [Example 74, 6-(4-fluorophenyl)-N-((6-methylpyridazin-3-yl)methyl)-8-(oxetan-3-yloxy)quinazolin-4-amine] it is 3160 to 31600 nM; for `C[C@@H](Nc1ncnc2c(OC3CCNC4(CCC4)C3)cc(-c3ccc(F)cc3)cc12)c1cnc(C(F)(F)F)nc1` (stereo partly drawn) [Example 39, 8-(5-azaspiro[3.5]nonan-8-yloxy)-6-(4-fluorophenyl)-N-[(1R)-1-[2-(trifluoromethyl)pyrimidin-5-yl]ethyl]quinazolin-4-amine] it is less than 316 nM.
For `COc1cc(-c2ncc(C)cn2)cc2c(NC(C)c3nc(C)no3)ncnc12` (single isomer, unassigned) [Example 122, 8-Methoxy-N-[1-(3-methyl-1,2,4-oxadiazol-5-yl)ethyl]-6-(5-methylpyrimidin-2-yl)quinazolin-4-amine], the IC50 was 3160 to 31600 nM.
`COc1cc(-c2ccc(F)cc2)cc2c(NC(C)c3cccc(=O)[nH]3)ncnc12` (centres unmarked) [Example 1, 6-(1-((6-(4-Fluorophenyl)-8-methoxyquinazolin-4-yl)amino)ethyl)pyridin-2(1H)-one]: the IC50 was less than 316 nM.
In turn, `Cc1ccc(CNc2ncnc3c(OCC4COC4)cc(-c4ncc(C)s4)cc23)nn1` [Example 37, N-((6-methylpyridazin-3-yl)methyl)-6-(5-methylthiazol-2-yl)-8-(oxetan-3-ylmethoxy)quinazolin-4-amine] returned an IC50 of less than 316 nM.
`COc1cc(-c2ccc(F)cn2)cc2c(NCc3nc(C)no3)ncnc12` [Example 133, 6-(5-fluoropyridin-2-yl)-8-methoxy-N-((3-methyl-1,2,4-oxadiazol-5-yl)methyl)quinazolin-4-amine]: the IC50 lay in the range of 316 to 3160 nM.
As to `CNS(=O)(=O)c1cc(-c2ccc(F)cc2)cc2c(N[C@H](C)c3nnc(C)s3)ncnc12` [Example 21], the IC50 was 316 to 3160 nM.
Take `COc1cc(-n2cc(F)cn2)cc2c(N[C@H](C)c3ccc(C)nn3)ncnc12` [Example 98, (R)-6-(4-fluoro-1H-pyrazol-1-yl)-8-methoxy-N-(1-(6-methylpyridazin-3-yl)ethyl)quinazolin-4-amine]: the IC50 lay within 316 to 3160 nM.
`C[C@@H](Nc1ncnc2c(C3=CCNCC3)cc(-c3ccc(F)cc3)cc12)c1cnc(C(F)(F)F)nc1` [Example 27, (R)-6-(4-fluorophenyl)-8-(1,2,3,6-tetrahydropyridin-4-yl)-N-(1-(2-(trifluoro-methyl)pyrimidin-5-yl)ethyl)quinazolin-4-amine] showed an IC50 of less than 316 nM.
Molecule `COc1cc(-n2cc(Cl)cn2)cc2c(N[C@H](C)c3cnc(C(F)(F)F)nc3)ncnc12` [Example 104, (R)-6-(4-chloro-1H-pyrazol-1-yl)-8-methoxy-N-(1-(2-(trifluoromethyl)pyrimidin-5-yl)ethyl)quinazolin-4-amine] registered an IC50 of less than 316 nM.
`COc1cc(-c2ccc(F)cn2)cc2c(NCc3ccn(C)c(=O)c3)ncnc12` [Example 147, 4-(((6-(5-fluoropyridin-2-yl)-8-methoxyquinazolin-4-yl)amino)methyl)-1-methylpyridin-2(1H)-one] came in with an IC50 of 316 to 3160 nM.
`Cc1ccc(CNc2ncnc3c(OCCO)cc(-c4ncc(C)s4)cc23)nn1` [Example 36, 2-((4-(((6-methylpyridazin-3-yl)methyl)amino)-6-(5-methylthiazol-2-yl)quinazolin-8-yl)oxy)ethan-1-ol] registered an IC50 of less than 316 nM.
Molecule `Cc1nc([C@@H](C)Nc2ncnc3c(OC4CCOCC4)cc(-c4ccc(F)cn4)cc23)no1` [Example 82, 6-(5-fluoro-2-pyridyl)-N-[(1R)-1-(5-methyl-1,2,4-oxadiazol-3-yl)ethyl]-8-tetrahydropyran-4-yloxy-quinazolin-4-amine] yielded an IC50 of less than 316 nM.
Still for that read-out and setting: as for `COc1cc(-c2ccc(F)cn2)cc2c(NCc3noc(C)n3)ncnc12` [Example 132, 6-(5-Fluoropyridin-2-yl)-8-methoxy-N-((5-methyl-1,2,4-oxadiazol-3-yl)methyl)quinazolin-4-amine], the figure is 316 to 3160 nM; as for `COc1cc(-c2ccc(F)cn2)cc2c(NCc3nnc(C)o3)ncnc12` [Example 134, 6-(5-fluoropyridin-2-yl)-8-methoxy-N-((5-methyl-1,3,4-oxadiazol-2-yl)methyl)quinazolin-4-amine], 316 to 3160 nM.

The experiment is the same for the next values; noted with them: range of activity; inhibition of P2X3 current evoked by 800 nM α,β-MeATP, 10 min antagonist preincubation; comparative examples.
As for `Cc1ccc(COc2ncnc3ncc(-c4ccc(F)cc4)cc23)cn1` [Comparative Example A, 6-(4-fluorophenyl)-4-[(6-methyl-3-pyridyl)methoxy]pyrido[2,3-d]pyrimidine, reference compound], the “h P2X3” value was “inactive”.
